Data from patent US6096732A, “Steroid esters, process for their production and their pharmaceutical use” (Schering AG, priority 1996, dated 2000).

What was measured:
[1] = test system: human, tamoxifen-resistant ZR-75 breast cancer; assay: Tumor-inhibiting action on human, tamoxifen-resistant ZR-75 breast cancer in nude mice; format: in vivo; settings: s.c., 8 weeks, vs. untreated control; graph only
Experimental: Breast cancer cell line ZR-75 is an estrogen- and progesterone receptor-positive human line, which can be transplanted serially in the thymic aplastic nude mouse. […] An underline that is used here developed a tamoxifen resistance after a prolonged treatment period.
Female nude/nude mice, 4 weeks old.
Formulation and Administration of Test Substances:
The test substances are dissolved in benzyl benzoate and castor oil (1+4), and the one-time dose is administered at a volume of 0.1 ml s.c. Treatment begins about 7 weeks after implantation (treatment of established tumors). The treatment time is at most 10 weeks.
The tumor fragments of several donor animals are implanted in the animals s.c. on both sides in the flanks. On the day of implantation and on day 60, all animals are implanted with a tamoxifen-releasing pellet (5 mg).
The mice are randomized 7 weeks after implantation of the tumors, and the treatment is begun and carried out for 8 weeks.
Tumor growth is determined by determination of the tumor surface area using a sliding gauge. The tumor surface area is calculated from the product of the longest diameter of the tumor and the diameter that is perpendicular to said longest diameter. At the end of the test, the animals are killed, the tumors are prepared outside and weighed.

[2] = format: physicochemical
Experimental: Studies on Hydrolytic Stability of the Esters According to the Invention
The hydrolytic stability of the esters under strongly basic conditions can be used to assess whether the compounds have adequate stability under physiological conditions.
In each case, 10 mg of compounds 1, 3 and 4 was dissolved at 23° C. in 10 ml of dioxane and mixed with 1 ml of a 1N aqueous sodium hydroxide solution. In each case, 11 samples were drawn, acidified to pH 6 and the ester:alcohol ratio was determined per HPLC. In the graphic visualization,the portion of ester is depicted in percent as a function of the saponification period in hours.

[3] = test system: NMU-induced breast tumor of rats; assay: Influence of the tumor growth in N-Methyl-N-nitrosourea (NMU) model in rats; format: in vivo, rat (Sprague-Dawley); settings: p.o., 6 times per week, various dosages; vs. reference compound 3
Experimental: Influence of the Tumor Growth in N-Methyl-N-nitrosourea (NMU)--Model in Rats
The growth of the NUM-induced breast tumor of rats is largely dependent on estrogens and gestagens and less on prolactin. Estrogen and progesterone antagonists result in inhibiting tumor growth.
Female rats (Sprague-Dawley), 55 (±3) days old; at least 9 animals per group.
The animals receive 50 mg/kg of NMU on a one-time basis. Then, the animals are checked once a week by palpation for tumor development. About 6 to 8 weeks after NMU treatment, one or more tumors develop per animal. At a minimum size of 150 mm^2 /tumor/animal, treatment (6 times per week) begins with the test substance, the determination of body weight and tumor size (with the aid of a sliding gauge; once per week).
The results for compound 1 are graphically depicted in the following figures for various dosages in each case in comparison to the untreated control, an ovariectomy group as well as reference compound 3, (Z)-6'-(4-cyanophenyl)-9,11α-dihydro-17β-hydroxy-17α-[3-(1-oxo-2-methylpropoxy)-1-propenyl]-4'H-naphtho[3',2',1':10,9,11]estr-4-en-3-one. […] This is surprising because of the only slight structural differences. [drawing 5] Tumor-Inhibiting Action on the Hormone-Sensitive Human Breast Cancer Cell Line ZR-75.

[4] = format: physicochemical; remark: listed apart in the source
Experimental: Solubility Studies of the Esters that are Mentioned in Examples 1 to 6
In the following table, the solubility of compounds 1 to 6 is depicted in comparison to unesterified reference compound 1 (Z)-6'-(4-cyanophenyl)-9,11α-dihydro-17β-hydroxy-17α-(3-hydroxy-1-propenyl)-4'H-naphtho[3',2',1':10,9,11]estra-4-en-3-one (Example 1 in DE-A 4216003). For solubility, the temperature is indicated in °C., in which 50 mg of substance is dissolved in 1 ml of a 1:4 benzyl benzoate/castor oil mixture.

[5] = test system: breast cancer cell line ZR-75; settings: standard treatment; cited from earlier work

| Structure (SMILES) | stability compared to reference compound 3 [2] | stability under strongly basic conditions [2] | Solubility (temperature at which 50 mg of substance is dissolved in 1 ml) [4] | other results |
| --- | --- | --- | --- | --- |
| CC(C)CC(=O)OC/C=C\[C@]1(O)CC[C@H]2[C@@H]3CCC4=CC(=O)CC[C@@]45Cc4cc(-c6ccc(C#N)cc6)ccc4[C@@H](C[C@@]21C)[C@@H]35 [Compound 1, (Z)-6'-(4-Cyanophenyl)-9,11α-dihydro-17β-hydroxy-17α-[3-(1-oxo-3-methylbutoxy)-1-propenyl]-4'H-naphtho[3',2',1':10,9,11]estr-4-en-3-one] | significantly improved compared to reference compound 3 | very good stability | 50 °C | inhibition of the course of growth of the tumors [1]: inhibition of the course of growth of the tumors; tumor-inhibiting action [3]: tumor-inhibiting action that is superior to that of reference compound 3 |
| CC(C)C(=O)OCC/C=C\[C@]1(O)CC[C@H]2[C@@H]3CCC4=CC(=O)CC[C@@]45Cc4cc(-c6ccc(C#N)cc6)ccc4[C@@H](C[C@@]21C)[C@@H]35 [Compound 2, (Z)-6'-(4-Cyanophenyl)-9,11α-dihydro-17β-hydroxy-17α-[4-(1-oxo-2-methylpropoxy)-1-butenyl]-4'H-naphtho[3',2',1':10,9,11]estr-4-en-3-one] | – | – | 23 °C | – |
| CC(C)CC(=O)OCC/C=C\[C@]1(O)CC[C@H]2[C@@H]3CCC4=CC(=O)CC[C@@]45Cc4cc(-c6ccc(C#N)cc6)ccc4[C@@H](C[C@@]21C)[C@@H]35 [Compound 3, (Z)-6'-(4-cyanophenyl)-9,11α-dihydro-17β-hydroxy-17α-[4-(1-oxo-3-methylbutoxy)-1-butenyl]-4'H-naphtho[3',2',1':10,9,11]estr-4-en-3-one] | significantly improved compared to reference compound 3 | very good stability | 23 °C | – |
| CC(C)CC(=O)OCC/C=C\[C@]1(O)CC[C@H]2[C@@H]3CCC4=CC(=O)CC[C@@]45Cc4cc(-c6ccc(F)cc6)ccc4[C@@H](C[C@@]21C)[C@@H]35 [Compound 4, (Z)-9,11α-dihydro-6'-(4-fluorophenyl)-17β-hydroxy-17α-[4-(1-oxo-3-methylbutoxy)-1-butenyl]-4'H-naphtho[3',2',1':10,9,11]estr-4-en-3-one] | significantly improved compared to reference compound 3 | very good stability | 50 °C | – |
| CC(C)CC(=O)OC/C=C\[C@]1(O)C=C[C@H]2[C@@H]3CCC4=CC(=O)CC[C@@]45Cc4cc(-c6ccc(C#N)cc6)ccc4[C@@H](C[C@@]21C)[C@@H]35 [Compound 5, (Z)-6'-(4-Cyanophenyl)-9,11α-dihydro-17β-hydroxy-17α-[3-(1-oxo-3-methylbutoxy)-1-propenyl]-4'H-naphtho[3',2',1':10,9,11]estra-4,15-dien-3-one] | – | – | 23 °C | – |
| CC(C)C(=O)OC/C=C\[C@]1(O)C=C[C@H]2[C@@H]3CCC4=CC(=O)CC[C@@]45Cc4cc(-c6ccc(C#N)cc6)ccc4[C@@H](C[C@@]21C)[C@@H]35 [Compound 6, (Z)-6'-(4-Cyanophenyl)-9,11α-dihydro-17β-hydroxy-17α-[3-(1-oxo-2-methylpropoxy)-1-propenyl]-4'H-naphtho[3',2',1':10,9,11]estra-4,15-dien-3-one] | – | – | < 50 °C | – |
| C[C@]12C[C@@H]3c4ccc(-c5ccc(C#N)cc5)cc4C[C@]45CCC(=O)C=C4CC[C@H]([C@H]35)[C@@H]1CC[C@@]2(O)/C=C\CO [Reference Compound 1, (Z)-6'-(4-cyanophenyl)-9,11α-dihydro-17β-hydroxy-17α-(3-hydroxy-1-propenyl)-4'H-naphtho[3',2',1':10,9,11]estra-4-en-3-one, reference compound] | – | – | > 100 °C | – |
| CC(C)C(=O)OC/C=C\[C@]1(O)CC[C@H]2[C@@H]3CCC4=CC(=O)CC[C@@]45Cc4cc(-c6ccc(C#N)cc6)ccc4[C@@H](C[C@@]21C)[C@@H]35 [Reference Compound 3, (Z)-6'-(4-cyanophenyl)-9,11α-dihydro-17β-hydroxy-17α-[3-(1-oxo-2-methylpropoxy)-1-propenyl]-4'H-naphtho[3',2',1':10,9,11]estr-4-en-3-one, reference compound] | – | – | 100 °C | – |
| CC/C(=C(\c1ccccc1)c1ccc(OCCN(C)C)cc1)c1ccccc1 [tamoxifen] | – | – | – | response of ZR-75 to tamoxifen [5]: inhibiting growth |
